Measurements as given in patent US10273218B2, “BCL-3 inhibitors” (University College Cardiff Consultants Limited, priority 2014, dated 2019).

Assays:
[1] = system: human breast cancer MDA-MB-231 xenograft; assay: in vivo metastasis mouse Model 1 (seeding and early colonization of circulating tumour cells); parameters: species or system mice; conditions: 3.5 mg/Kg intraperitoneal daily for 10 days, relative luminescence of thoracic region; for inhibition of metastasis / tumour burden in Model 1: versus controls and compound 12
Description: In all experiments, each compound was administered by intraperitoneally at 3.5 mg/kg.
(§1) One model (Model 1) studied the effect of the compound's ability to inhibit the seeding and early colonization of circulating tumour cells at distal sites, most commonly in the lungs and liver. Human tumour cell lines were injected into the bloodstream of recipient mice, followed by single daily intraperitoneal injections of the compound (3.5 mg/kg in 1% DMSO) for 10 consecutive days. Tumour burden was monitored longitudinally for up to 8 weeks in vivo by live luminescence imaging, and subsequently histology performed on affected organs at the end of the experiment.
as §1, with “Model 1 tested” for “One model (Model 1) studied”, “Bcl3i compounds” for “the compound's ability”, “Bcl3 inhibitor” for “the compound”
The X axis represents the number of days after xenograft and the Y axis is the relative luminescence of the thoracic region by Xenon IVIS scanning of mice following injection of d-luciferin for 10 minutes.
MDA-MB-231 human breast cancer cells were used in each of the three xenograft models of metastatic breast cancer.

[2] = system: MDA-MB-231-Luc highly metastatic human breast cancer cells; assay: in vivo metastasis mouse model, disease free survival; parameters: species or system Nude mice; conditions: 3.5 mg/Kg once daily for 10 days; MDA-MB-231-Luc i.v.; monitored up to 49 days
Description: Nude mice are injected i.v. with 200,000 highly metastatic human breast cancer cells expressing luciferase (MDA-MB-231-Luc) then are given a compound of Formula (I) or Formula (Ia) once daily for about 10 days and are monitored for tumours by total body scan using Xenogen-IVIS. Mice with a luciferase signal above background in repeated scans in any part of their torso are scored as having metastatic disease. Total light emission in the abdominal region is quantified at time points up to 49 days post surgery and plotted as mean total light yield.
Nude mice were injected i.v. with 200,000 highly metastatic human breast cancer cells expressing luciferase (MDA-MB-231-Luc) then given 3.5 mg/Kg of compound 12, reference compound A, or Reference compound B once daily for 10 days and monitored for tumours by total body scan using Xenogen-IVIS. Mice with a luciferase signal above background in repeated scans in any part of their torso were scored as having metastatic disease. Total light emission in abdominal region was quantified at time points up to 49 days post surgery and plotted as mean total light yield. Control n=12, Reference compound A n=10, Reference compound B n=4; compound 12 n=4.

[3] = system: human breast cancer cell line MDA-MB-436; assay: transwell (Boyden chamber) cell migration assay after scratch; format: cell-based; conditions: 10 micromolar compound, 24 hours before and 24 hours in transwell chambers, versus DMSO, compound 12, MEKi
Description: The migration of cells in the presence of a compound of Formula (I) or Formula (Ia) is determined using a Scratch assay.
For the Scratch Assay, 1 micromolar solutions of the compounds are prepared. In six well plates, the complete growth media of the seeded cells (density […] in 20 mL) is removed and replaced by 3 mL of a fresh one containing compounds of Formula (I) or Formula (Ia). Media is used as a negative compound.
After a 24 h incubation period at 5% CO2 and 37° C., the media is removed and a scratch is performed in each well. 1 mL of fresh complete growth media is used to wash the well. After its removal, 3 mL of a solution containing a compound of Formula (I) or Formula (Ia) is added in each well in triplicate. Pictures of the wells are then taken. After 24 h, pictures of the wells are again taken. […]
The cell migration assay used was the transwell (Boyden chamber) assay of cell migration in human breast cancer cell line MDA-MB-436. After a scratch was performed in each well the cells were incubated with a 10 micromolar solution of compound for 24 hours prior to passage into transwell chambers where they were maintained in the presence of compound for a further 24 hours before assessment of migration (measured by total fluorescence on opposing surface of transwell membrane following staining). Reduced fluorescence directly correlates with number of cells migrated. […]

| Compound | melting point | further results |
| --- | --- | --- |
| COc1ccc(C(=O)Nc2cccc(F)c2C(=O)NCCN2CCOCC2)c(F)c1 [Compound 28] | 105 to 107 °C | inhibition of metastasis / tumour burden in Model 1 [1]: significant reduction in tumour burden compared to controls but reduced effect compared to compound 12 |
| O=C(Nc1ccccc1C(=O)NCCN1CCOCC1)c1ccccc1F [Reference compound A] | – | disease free survival [2]: 70% |
| COc1ccc(C(=O)Nc2ccccc2C(=O)NCCN2CCOCC2)cc1 [Reference compound B] | – | disease free survival [2]: 50% |
| O=C(Nc1ccccc1C(=O)NCCN1CCOCC1)c1ccc2ccccc2c1 [Compound 31] | – | potency of effect in Model 1 relative to compound 28 [1]: more potent effects than compound 28; inhibition of metastasis / tumour burden in Model 1 [1]: equivalent inhibition of metastasis in vivo to compound 12; reduction of cell migration (total fluorescence on opposing surface of transwell membrane) [3]: more effective at reducing cell migration than the known potent cell migration inhibitor MEKi |
| COc1cc(NC(=O)c2ccccc2F)c(C(=O)NCCN2CCN(C)CC2)cc1OC [Compound 59, 2-(2-fluorobenzamido)-4,5-dimethoxy-N-(2-(4-methylpiperazin-1-yl)ethyl)benzamide] | 60 °C | – |
| CN1CCN(CCNC(=O)c2ccccc2NC(=O)c2ccc(OC(F)(F)F)cc2F)CC1 [Compound 115, 2-fluoro-N-(2-((2-(4-methylpiperazin-1-yl)ethyl)carbamoyl)phenyl)-4-(trifluoromethoxy)benzamide] | 69 to 71 °C | – |
| COc1ccc(C(=O)Nc2ccccc2C(=O)NCCN2CCN(C)CC2)c(F)c1 [Compound 58, 2-fluoro-4-methoxy-N-(2-((2-(4-methylpiperazin-1-yl)ethyl)carbamoyl)phenyl)benzamide] | 110 to 112 °C | – |
| CN1CCN(CCNC(=O)c2ccccc2NC(=O)c2ccccc2F)CC1 [Compound 49, 2-fluoro-N-(2-((2-(4-methylpiperazin-1-yl)ethyl)carbamoyl)phenyl)benzamide] | 116 °C | potency of effect in Model 1 relative to compound 28 [1]: more potent effects than compound 28; inhibition of metastasis / tumour burden in Model 1 [1]: equivalent inhibition of metastasis in vivo to compound 12 |
| O=C(Nc1ccccc1C(=O)NCCCN1CCOCC1)c1ccccc1F [Compound 34, 2-fluoro-N-(2-((3-morpholinopropyl)carbamoyl)phenyl) benzamide] | 76 to 79 °C | – |
| COc1cccc(C(=O)Nc2c(OC)cccc2C(=O)NCCN2CCOCC2)c1 [Compound 26, 3-methoxy-2-(3-methoxybenzamido)-N-(2-morpholinoethyl) benzamide] | 110 to 113 °C | – |
| COc1cccc(C(=O)NCCCN2CCOCC2)c1NC(=O)c1ccc2ccccc2c1 [Compound 121, N-(2-methoxy-6-(3-morpholinopropylcarbamoyl)phenyl)-2-naphthamide] | 140 to 142 °C | – |
| O=C(Nc1ccccc1C(=O)NCCc1ccccc1)c1cccnc1 [Compound 94, N-(2-(phenethylcarbamoyl)phenyl)nicotinamide] | 94 °C | – |
| COc1cc(NC(=O)c2cccnc2)c(C(=O)NCCN2CCOCC2)c(OC)c1OC [Compound 33, N-(3,4,5-trimethoxy-2-((2-morpholinoethyl)carbamoyl)phenyl) nicotinamide] | 155 °C | – |
| O=C(NCCN1CCNCC1)c1ccccc1NC(=O)c1c(F)cccc1F [Compound 44, 2,6-difluoro-N-(2-((2-(piperazin-1-yl)ethyl)carbamoyl)phenyl) benzamide] | 79 °C | – |
| COc1cccc(C(=O)NCCc2ccccc2)c1NC(=O)c1ccc(F)cc1 [Compound 86, 2-(4-fluorobenzamido)-3-methoxy-N-phenethylbenzamide] | 140 to 142 °C | – |
| CN1CCN(CCNC(=O)c2ccccc2NC(=O)c2ccc(Cl)cc2)CC1 [Compound 52, 2-(4-chlorobenzamido)-N-(2-(4-methylpiperazin-1-yl)ethyl) benzamide] | 99 °C | – |
| COc1cccc(C(=O)NCCc2ccccc2)c1NC(=O)c1ccc2ccccc2c1 [Compound 119, N-(2-methoxy-6-(phenethylcarbamoyl)phenyl)-2-naphthamide] | 188 to 190 °C | – |
| O=C(NCCN1CCOCC1)c1ccccc1NC(=O)c1ccccc1[N+](=O)[O-] [Compound 147, N-(2-morpholinoethyl)-2-(2-nitrobenzamido)benzamide] | 138 to 140 °C | – |
